Results as given in US12162959B2, “Cyclic peptide for treating cancer” (Saint Leo University, priority 2018, dated 2024).
Where a SMILES comes first, the peptide text is derived from it.

Tests used:
[1] = tested on: HMEC primary mammary epithelial cells
Method: (§1) Breast adenocarcinoma (MDA-MB468), ductal carcinoma (BT-549), and primary mammary epithelial (HMEC) cells were transfected with 1.25 μM, 2.5 μM, 5.0 μM, or 20.0 μM of peptide 7N by using Pierce Protein Transfection reagent. Cells were incubated post-transfection for a duration of two doubling periods and assessed for viability by using a cell proliferetion CCK-8 assay.
(§2) IC50 values were calculated form obtained equations that describe cell viability as a function of peptide concentration.

[2] = tested on: SVG p12 immortalized normal astroglia cells
Method: (§3) Cells were incubated post-transfection for a duration of two doubling periods and assessed for viability by using a cell proliferetion CCK-8 assay.
as §2

[3] = tested on: THLE-3 immortalized normal liver cells
Method: (§4) Hepatocellular carcinoma (Hep3B and Hep-G2) and immortalized normal liver (THLE-3) cells were transfected with 1.25 μM, 2.5 μM, 5.0 μM, or 20.0 μM of peptide 7N by using Pierce Protein Transfection reagent. Cells were incubated post-transfection for a duration of two doubling periods and assessed for viability by using a cell proliferetion CCK-8 assay.
as §2

[4] = tested on: Human recombinant CMG helicase; assay: In vitro CMG helicase activity assay with Y-shaped oligonucleotide substrate; format: biochemical; conditions: about 5 nM CMG helicase, 1.0, 2.0 or 5.0 nM peptide, 0.5 mM ATP, 37° C. 45 minutes; FIG. 1A/1B
Method: Human recombinant CMG helicase was co-incubated with Peptide 7N (amide cyclic of SEQ ID NO: 1) peptide in the 1-5 nM range and subjected to an in vitro activity assay with Y-shaped oligonucleotides as a substrate.
About 5 nM of CMG helicase was pre-incubated with 1.0, 2.0, or 5.0 nM of Peptide 7N peptide for 20 minutes on ice. In vitro helicase reactions containing partially annealed Y-shaped oligonucleotides as substrate were fired by the addition of 0.5 mM ATP as described previously (Kang Y H et al. PNAS, 2012, 109(16), p. 6042-6047). Reactions were incubated at 37° C. for 45 minutes, stopped with 4 μL of 6× stop solution, and separated by 10% PAGE. To visualize DNA bands, the gel was stained using SYBR Gold nucleic acid stain. Densities of single-stranded DNA bands were quantified by using Image Lab software, and normalized against control.

[5] = tested on: hTERT-HPNE immortalized normal pancreatic cells
Method: as §3, §2

[6] = tested on: MRC-9 normal embryonic lung fibroblasts
Method: as §3, §2

Method for BT-549 cells: as §1, §2
Method for H596 cells: as §3, §2
Method for HLF-a cells: as §3, §2
Method for Hep-G2 cells: as §4, §2
Method for Hep3B cells: as §4, §2
Method for Hs 766T cells: as §3, §2
Method for M059J cells: as §3, §2
Method for M059K cells: as §3, §2
Method for MDA-MB468 cells: as §1, §2
Method for NTERA-2 cells: Pierce Protein Transfection reagent (Thermo Scientific, 89850) was used to deliver peptide to the cultured cells. Transfected cells were allowed to go through two division cycles (48 hours) port-transfection, after which amounts of alive cells were determined by using a colorimetric CCK-8 assay (Dojindo Molecular Technologies, Inc.).
Human embryonal testicular carcinoma cells (NTERA-2 from ATCC #CRL-1973) were transfected with 1-10 μM Peptide 7N for 4.0 hours, incubated in a complete media for 48 hours, and assessed for viability by using a CCK-8 colorimetric assay.
as §2
Method for PANC-1 cells: as §3, §2
Method for SW480 cells: (§5) Colorectal adenocarcinoma cells (SW480 and SW620) were transfected with 1.25 μM, 2.5 μM, 5.0 μM, or 20.0 μM of peptide 7N by using Pierce Protein Transfection reagent. Cells were incubated post-transfection for a duration of two doubling periods and assessed for viability by using a cell proliferetion CCK-8 assay.
as §2
Method for SW620 cells: as §5, §2

- IC50 (Hs 766T cells): 18.1 µM
- IC50 (Hep3B cells): 14.1 µM
- IC50 (BT-549 cells): 18.3 µM
- IC50 (HLF-a cells): 14.4 µM
- IC50 [1]: 134 µM
- IC50 (SW480 cells): 21.8 µM
- IC50 (M059J cells): 15.4 µM
- IC50 (NTERA-2 cells; 48 h): 7 µM
- IC50 (PANC-1 cells): 24.6 µM
- IC50 (MDA-MB468 cells): 17.1 µM
- IC50 (SW620 cells): 22 µM
- IC50 (M059K cells): 16.1 µM
- IC50 (H596 cells): 12.2 µM
- IC50 (Hep-G2 cells): 16.7 µM
SMILES: CSCC[C@@H]1NC(=O)[C@H](CCC(N)=O)NC(=O)[C@H](CC(C)C)NC(=O)[C@H](C(C)C)NC(=O)[C@H](CCC(=O)O)NC(=O)CNC(=O)[C@H](CCCCN)NC(=O)[C@H](C(C)C)NC(=O)[C@H](CC(C)C)NC(=O)[C@H](CC(=O)O)NC(=O)[C@H](CC(=O)O)NC(=O)[C@H](CCC(=O)O)NC1=O [Peptide 7N, Lys-Gly-Glu-Val-Leu-Gln-Met-Glu-Asp-Asp-Leu-Val] (cyclo(KGEVLQMEDDLV))
- Proliferation of pancreatic carcinoma cells (result in words) (Hs 766T cells; Hs 766T, 1.25-20.0 μM peptide, CCK-8, FIG. 5): decreased proliferation
- Proliferation of liver carcinoma cells (result in words) (Hep3B cells; Hep3B, 1.25-20.0 μM peptide, CCK-8, FIG. 4): decreased proliferation
- Proliferation of breast cancer cells (result in words) (BT-549 cells; BT-549, 1.25-20.0 μM peptide, CCK-8, FIG. 7): decreases proliferation
- Proliferation of lung carcinoma cells (result in words) (HLF-a cells; HLF-a, 1.25-20.0 μM peptide, CCK-8, FIG. 3): decreased proliferation
- Effect on normal mammary epithelial cells (result in words) ([1]; HMEC, 1.25-20.0 μM peptide, CCK-8, FIG. 7): sparing
- Proliferation of colorectal cancer cells (result in words) (SW480 cells; SW480, 1.25-20.0 μM peptide, CCK-8, FIG. 8): decreased proliferation
- Proliferation of brain glioma cells (result in words) (M059J cells; M059J, 1.25-20.0 μM peptide, CCK-8, FIG. 6): decreased proliferation
- IC50 [2]: 271 µM
- Effect on immortalized normal astroglia cells (result in words) ([2]; SVG p12, 1.25-20.0 μM peptide, CCK-8, FIG. 6): sparing
- Proliferation/viability of NTERA-2 cells (NTERA-2 cells; transfected with 1-10 μM peptide for 4.0 hours, 48 hours in complete media, CCK-8, FIG. 2): effectively inhibited proliferation
- IC50 [3]: 722 µM
- Effect on immortalized normal liver cells (result in words) ([3]; THLE-3, 1.25-20.0 μM peptide, CCK-8, FIG. 4): sparing
- Proliferation of pancreatic carcinoma cells (result in words) (PANC-1 cells; PANC-1, 1.25-20.0 μM peptide, CCK-8, FIG. 5): decreased proliferation
- Proliferation of breast cancer cells (result in words) (MDA-MB468 cells; MDA-MB468, 1.25-20.0 μM peptide, CCK-8, FIG. 7): decreases proliferation
- Proliferation of colorectal cancer cells (result in words) (SW620 cells; SW620, 1.25-20.0 μM peptide, CCK-8, FIG. 8): decreased proliferation
- Proliferation of brain glioma cells (result in words) (M059K cells; M059K, 1.25-20.0 μM peptide, CCK-8, FIG. 6): decreased proliferation
- Inhibition of CMG helicase (density of single-stranded DNA bands normalized against control) [4]: inhibited CMG helicase in a robust dose-dependent manner
- Proliferation of lung carcinoma cells (result in words) (H596 cells; H596, 1.25-20.0 μM peptide, CCK-8, FIG. 3): decreased proliferation
- Proliferation of liver carcinoma cells (result in words) (Hep-G2 cells; Hep-G2, 1.25-20.0 μM peptide, CCK-8, FIG. 4): decreased proliferation
- IC50 [5]: 1050 µM
- Effect on immortalized normal pancreatic cells (result in words) ([5]; hTERT-HPNE, 1.25-20.0 μM peptide, CCK-8, FIG. 5): sparing
- IC50 [6]: 162 µM
- Effect on normal lung fibroblasts (result in words) ([6]; MRC-9, 1.25-20.0 μM peptide, CCK-8, FIG. 3): sparing
